Experimental data taken from patent US9526721B2, “Tetrahydroprotoberbine compounds and uses thereof in the treatment of neurological, psychiatric and neurodegenerative diseases” (priority 2012, dated 2016).
Entries after “also recorded” stand apart in the source; their conditions may differ.

Legend:
5HT2A = biological target: T1, 5HT2A (Homo sapiens, UniProt P28223); assay: Receptor binding, 5HT2A; conditions: receptor expressed in CHO cells
T1 construct: host or cells: CHO cells
Procedure: (§1) All receptors tested were heterologously expressed CHO cells and IC50 values were determined by a non-linear, least squares regression analysis using MathIQ (ID Business Solution Ltd, UK). Ki was calculated using the equation of Cheng and Prusoff (1973, Biochem. Pharmacol 22:23099-3108) derived from the observed IC50 of the tested compound, the concentration of radioligand employed in the assay, and the historical values for the Kd of the ligand (obtained experimentally at MDS Pharma Services).
as §1, with “receptors” for “receptors tested”, “UK). K1” for “UK). Ki”, “calculated (Y.” for “calculated using the equation of”, “Cheng &” for “Cheng and”, “Prusoff 1973)” for “Prusoff (1973, Biochem. Pharmacol 22:23099-3108) derived”

5HT2C = biological target: T2, 5HT2C (Homo sapiens, UniProt P28335); assay: Receptor binding, 5HT2C; conditions: receptor expressed in CHO cells
T2 construct: host or cells: CHO cells
T2 sequence (P28335 33-458): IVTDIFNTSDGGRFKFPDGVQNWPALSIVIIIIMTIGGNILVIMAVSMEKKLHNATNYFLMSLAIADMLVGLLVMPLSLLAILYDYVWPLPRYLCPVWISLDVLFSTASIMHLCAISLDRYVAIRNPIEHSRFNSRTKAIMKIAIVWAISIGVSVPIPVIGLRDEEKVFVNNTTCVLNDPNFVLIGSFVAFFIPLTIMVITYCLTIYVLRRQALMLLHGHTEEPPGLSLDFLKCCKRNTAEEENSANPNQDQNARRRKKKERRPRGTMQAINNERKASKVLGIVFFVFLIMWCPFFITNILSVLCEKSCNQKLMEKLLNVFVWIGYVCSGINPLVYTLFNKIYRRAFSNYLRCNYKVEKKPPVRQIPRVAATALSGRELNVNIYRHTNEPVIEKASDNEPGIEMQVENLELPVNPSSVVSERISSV
Procedure: as §1
as §1, with “receptors” for “receptors tested”, “UK). K1” for “UK). Ki”, “calculated (Y.” for “calculated using the equation of”, “Cheng &” for “Cheng and”, “Prusoff 1973)” for “Prusoff (1973, Biochem. Pharmacol 22:23099-3108) derived”

D2L = biological target: T3, D2L (Homo sapiens, UniProt P14416); assay: Receptor binding, dopamine D2L; conditions: for Ki: receptor expressed in CHO cells, read-out: Ki, D2L
T3 construct: host or cells: CHO cells
Procedure: as §1
as §1, with “receptors” for “receptors tested”, “UK). K1” for “UK). Ki”, “calculated (Y.” for “calculated using the equation of”, “Cheng &” for “Cheng and”, “Prusoff 1973)” for “Prusoff (1973, Biochem. Pharmacol 22:23099-3108) derived”

D5 = biological target: T4, D5 (Homo sapiens, UniProt P21918); assay: Receptor binding, dopamine D5; conditions: receptor expressed in CHO cells
T4 construct: host or cells: CHO cells
Procedure: All receptors tested were heterologously expressed CHO cells and IC50 values were determined by a non-linear, least squares regression analysis using MathIQ (ID Business Solution Ltd, UK).
All receptors were heterologously expressed CHO cells and IC50 values were determined by a non-linear, least squares regression analysis using MathIQ (ID Business Solution Ltd, UK).

rats [1] = assay: Latent inhibition; assay type: in vivo, rat; conditions: treatment before each pre-exposure; 1.0 mg/kg d-AMPH before conditioning
Procedure: Sensitization: Animals were removed from the colony and taken to a holding room where they received either IP d-AMPH or saline every Monday, Wednesday, and Friday. Doses started at 1 mg/kg and increased 1 mg/kg each week over 5 weeks to 5 mg/kg. 25 days after the induction phase, behavioral sensitization was assessed over 3 days in locomotor chambers (plexiglass box, 40 cm×40 cm×40 cm) where speed and distance traveled were recorded using Noldus Ethovision XT (Noldus, Leesburg, Va.). The first day consisted of a 2 hr acclimation session, and prior to counter balanced injections of either 0.5 mg/kg d-AMPH or saline on days 2 and 3 animals were acclimated for 1 hr. Experiments were run in two separate cohorts of 30 animals to minimize the time between testing sensitization and LI.
Latent Inhibition: LI tests were performed in rats treated with 1.0 mg/kg acute d-AMPH, sensitized rats, and drug-naive rats. LI testing began 5 days post-challenge of the escalating dose regime. Animals in both conditions (chronic saline or sensitized) were randomly assigned to either non-pre-exposed (NPE) or pre-exposed (PE) groups. Testing took place over 3 consecutive days. […] Animals in the PE group received 50 presentations of the CS (10 sec duration) per day at a variable interval for the first two days. Animals in the NPE group were placed in the chamber for an equal time as the PE animals. Conditioning (COND) consisted of 100 CS-US pairings. Latency to cross into the other compartment and the number of total beam breaks were recorded. Drug-naïve animals receiving acute 1.0 mg/kg AMPH were injected IP 45 min before the COND trial.
The effects of the two individual enantiomers of govadine on latent inhibition (LI) were also tested as described in Example 12.

D1 = D1 (Homo sapiens, UniProt P21728); assay: Receptor binding, dopamine D1; design: host or cells: CHO cells; conditions: for Ki: receptor expressed in CHO cells, read-out: Ki, D1
Procedure: as §1
as §1, with “receptors” for “receptors tested”, “UK). K1” for “UK). Ki”, “calculated (Y.” for “calculated using the equation of”, “Cheng &” for “Cheng and”, “Prusoff 1973)” for “Prusoff (1973, Biochem. Pharmacol 22:23099-3108) derived”

rats [2] = assay: Microdialysis of prefrontal cortex and nucleus accumbens; conditions: for 5-HIAA in NAc / DOPAC in NAc / HVA in NAc / dopamine level in NAc / 5-HIAA in PFC / DOPAC in PFC / HVA in PFC / dopamine level in PFC: microdialysis; for 5-HIAA in NAc / DOPAC in NAc / HVA in NAc / dopamine level in NAc: nucleus accumbens; for 5-HIAA in PFC / DOPAC in PFC / HVA in PFC / dopamine level in PFC: prefrontal cortex;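 as to all read-outs here: dialysate collected every 10 min from freely moving rats, analysed by HPLC with electrochemical detection, after four stable baseline samples (under 10% variation) preceding drug dosing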
Procedure: Rats received subcutaneous injections of an analgesic (ketoprofen 0.05 mL or buprenorphine, 0.1 mL) and sterile saline (0.9% NaCl, ˜3 mL). Once shaved and cleaned, the heads were secured in the stereotaxic frame in flat skull position for bilateral implantation of stainless steel microdialysis guide cannulae (19 gauge×15 mm) in the nucleus accumbens (NAc) (from bregma +1.7 mm anterior and ±1.1 mm medial; from dura −1.0 mm ventral) or medial prefrontal cortex (mPFC) (+3.0 mm anterior, ±0.6 mm medial; −1.0 mm ventral). […] Rats were allowed to rest with heat support until they regained consciousness, and then given a one-week recovery period.
Microdialysis probes were assembled 1-2 days prior to microdialysis experiments. Probes were concentric in design, constructed from Filtral 12 AN69HF semi-permeable hollow fibres (2 mm length, 340 μm OD×4 mm, 65 kDalton molecular weight cut-off; Hospal, Neurnberg, Germany) and silica inlet-outlet lines (75/150 um ID/OD).
The day prior to microdialysis experiments, probes were connected to an Instech dual-channel liquid swivel (Plymouth Meeting, Pa.) and flushed with artificial cerebrospinal fluid (aCSF). […] Following DA recovery tests, probes were implanted via the guide cannulae (dialysis membrane spanned −4.8 to −6.8 mm ventrally for NAc; −1.6 to −3.6 mm for mPFC). Rats remained in the testing chamber overnight (14-16 hr) with aCSF perfusing continuously through the probes at 1 μL/min In the morning, microdialysis samples were collected at 10 min intervals and assayed for DA, DOPAC, homovanillic acid (HVA) and 5-HIAA content. Once baseline levels were determined to be stable for four consecutive samples (less than 10% fluctuation), the drug treatment phase of each experiment was initiated.
Microdialysis samples were analyzed immediately after collection using high pressure liquid chromatography (HPLC) with electrochemical detection. […] The mobile phase [70 mM sodium acetate buffer, 40 mg/L EDTA and 50 mg/L of sodium dodecyl sulfate (adjustable), pH 4.0, 10% methanol] flowed through the system at 0.17 mL/min EZChrome Elite software (Scientific Software, Pleasanton, Calif.) was used to acquire and analyze chromatographic data.
After the experiments, rats were deeply anesthetized, brains were removed and stored in 20% w/v sucrose and 4% v/v paraformaldehyde. Brains were sliced into 50 um coronal sections, stained with cresyl violet and examined for probe placement.
Microdialysis probes (2 mm active membrane) were implanted in the NAc and mPFC ˜16 hrs prior to start of the experiment and continuously perfused aCSF.

[3] = tested on: midbrain dopamine (DA) neurons; assay: Firing of midbrain dopamine neurons in slices (cell-attached recording); assay type: cell-based, Sprague Dawley rats; conditions: co-application with Quinpirole (500 nM)
Procedure: Horizontal midbrain slices (220 μm) were prepared from male Sprague Dawley rats (3-4 weeks old). Cell-attached voltage-clamp recordings were used to examine tonic firing rate of DA neurons at 31-32° C. using patch pipette and bathing solutions consisting of physiological saline. Putative DA neurons were identified by spontaneous pacemaker firing (1-3 Hz) with broad APs (≧2.0 ms). Identified cells not responsive to Quinpirole (500 nM), a D2 DA receptor agonist, were excluded from further recording. Cells were also filled with biocytin or Alexa for posthoc-identification using TH immunostaining.

rats [4] = assay: Conditioned avoidance responding (CAR); conditions: SC, 100 CS-US pairings
Procedure: Conditioned avoidance responding (CAR) was performed in a two-way avoidance procedure with drug naive rats in four shuttle boxes (Med Associates, Vt., USA) each consisting of two compartments separated by an open door. Each compartment contained a wall-mounted speaker, house light and 5 photocells to detect the location of the animal. All experimental protocols and data acquisition were controlled by custom programs written in MED-PC.
Before training, each animal received two acclimation sessions lasting 30 min with only the house light illuminated. […] Pairings of the conditioned stimulus (CS) (white noise, ˜60 dB) and the unconditioned stimulus (US) (footshock, 0.75 mA) were presented at random intervals with a mean of 60 sec. The CS was presented for 10 sec. During this time, if the animal moved to the opposite side of the box, the white noise was silenced, no foot shock delivered, and an avoidance response was scored. Upon termination of the 10 sec tone, if the animal had not moved to the opposite side of the box, a foot-shock was administered for 2 sec. […] Failure to avoid or escape constituted a response failure and was scored accordingly. After reaching a criterion of 90% avoidances for a block of 20 trials, usually achieved with ˜100 CS-US pairings, each animal advanced to the drug-testing phase. Animals not meeting the criterion by 120 pairings were excluded from the study.
Pairings were presented just as during training and were scored in the same fashion. The test trial consisted of 100 CS-US pairings.

T3 sequence (P14416 whole entry): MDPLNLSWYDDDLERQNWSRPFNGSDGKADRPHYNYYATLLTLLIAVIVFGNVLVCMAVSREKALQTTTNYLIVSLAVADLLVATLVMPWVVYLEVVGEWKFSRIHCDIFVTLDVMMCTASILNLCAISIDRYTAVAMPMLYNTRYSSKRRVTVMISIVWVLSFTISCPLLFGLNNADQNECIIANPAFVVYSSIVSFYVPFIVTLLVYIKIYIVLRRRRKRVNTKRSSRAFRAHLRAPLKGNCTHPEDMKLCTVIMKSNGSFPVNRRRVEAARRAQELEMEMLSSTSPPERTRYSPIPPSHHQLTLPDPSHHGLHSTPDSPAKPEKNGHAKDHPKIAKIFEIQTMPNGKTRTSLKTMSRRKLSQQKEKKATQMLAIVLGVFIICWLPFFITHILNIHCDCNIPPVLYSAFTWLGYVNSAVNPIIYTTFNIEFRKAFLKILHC
Sequence of D1 (P21728 whole entry): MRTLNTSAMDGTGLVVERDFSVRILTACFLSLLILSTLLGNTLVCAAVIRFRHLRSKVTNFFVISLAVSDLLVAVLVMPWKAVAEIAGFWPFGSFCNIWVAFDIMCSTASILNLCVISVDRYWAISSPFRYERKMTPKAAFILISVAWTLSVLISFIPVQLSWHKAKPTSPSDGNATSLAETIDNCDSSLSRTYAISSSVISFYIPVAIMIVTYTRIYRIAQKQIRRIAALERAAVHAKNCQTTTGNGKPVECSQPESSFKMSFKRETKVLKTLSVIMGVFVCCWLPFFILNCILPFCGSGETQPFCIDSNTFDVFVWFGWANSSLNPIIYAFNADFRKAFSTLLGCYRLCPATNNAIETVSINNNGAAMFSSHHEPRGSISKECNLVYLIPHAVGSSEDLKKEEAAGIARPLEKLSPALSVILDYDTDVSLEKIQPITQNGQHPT
T1 sequence (P28223 whole entry, species assumed): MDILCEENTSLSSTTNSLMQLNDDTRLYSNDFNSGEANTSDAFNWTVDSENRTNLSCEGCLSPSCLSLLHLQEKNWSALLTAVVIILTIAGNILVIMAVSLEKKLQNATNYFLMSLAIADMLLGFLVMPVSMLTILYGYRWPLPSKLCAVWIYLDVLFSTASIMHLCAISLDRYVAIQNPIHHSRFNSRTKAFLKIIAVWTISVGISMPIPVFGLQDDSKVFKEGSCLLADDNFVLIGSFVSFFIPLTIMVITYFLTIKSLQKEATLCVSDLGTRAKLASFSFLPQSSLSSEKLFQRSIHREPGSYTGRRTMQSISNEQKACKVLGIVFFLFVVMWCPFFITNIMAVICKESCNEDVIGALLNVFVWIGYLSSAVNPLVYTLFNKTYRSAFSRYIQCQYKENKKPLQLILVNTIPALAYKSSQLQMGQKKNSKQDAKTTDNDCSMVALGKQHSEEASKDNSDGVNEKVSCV
T4 sequence (P21918 whole entry): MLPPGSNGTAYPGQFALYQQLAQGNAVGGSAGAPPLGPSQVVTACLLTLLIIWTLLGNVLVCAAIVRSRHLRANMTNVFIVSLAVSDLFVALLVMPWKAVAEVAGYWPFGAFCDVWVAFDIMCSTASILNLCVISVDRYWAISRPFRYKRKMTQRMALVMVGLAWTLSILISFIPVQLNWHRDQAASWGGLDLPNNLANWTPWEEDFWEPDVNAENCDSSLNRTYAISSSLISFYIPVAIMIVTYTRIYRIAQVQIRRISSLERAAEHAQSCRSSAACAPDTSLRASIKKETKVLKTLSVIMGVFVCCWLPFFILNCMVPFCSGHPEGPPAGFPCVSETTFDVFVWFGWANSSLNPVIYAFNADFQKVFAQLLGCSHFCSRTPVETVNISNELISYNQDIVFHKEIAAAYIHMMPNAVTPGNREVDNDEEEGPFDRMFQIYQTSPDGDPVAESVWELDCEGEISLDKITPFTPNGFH

| SMILES | Ki (5HT2A) [nM] | Ki (5HT2C) [nM] | binding affinity to the D2 receptor (D2L) | Ki (D2L) [nM] | Ki (D5) [nM] | latent inhibition in acute d-AMPH-treated animals (rats [1]) | binding affinity to the D1 receptor (D1) | Ki (D1) [nM] | 5-HIAA in NAc (rats [2]) | DOPAC in NAc (rats [2]) | HVA in NAc (rats [2]) | dopamine level in NAc (rats [2]) | 5-HIAA in PFC (rats [2]) | DOPAC in PFC (rats [2]) | HVA in PFC (rats [2]) | dopamine level in PFC (rats [2]) | antagonism of D2 autoreceptor-mediated decrease in tonic firing [3] | suppression of conditioned avoidance responding (avoidances) (rats [4]) | DA efflux in NAc and mPFC compared to control (rats [2]; 1 mg/kg, Example 15) |
| --- | --- | --- | --- | --- | --- | --- | --- | --- | --- | --- | --- | --- | --- | --- | --- | --- | --- | --- | --- |
| COc1cc2c(cc1O)CN1CCc3cc(OC)c(O)cc3[C@H]1C2 [d-govadine] | 11800 | 46500 | weak affinity | 1340 | 13.4 | restored LI | strong binding affinity | 8.75 | not the NAc | no increase observed | no increase observed | not in the NAc | increased | increased | increased | selectively increased |  |  |  |
| COc1cc2c(cc1O)CN1CCc3cc(OC)c(O)cc3[C@@H]1C2 [l-govadine] | 11100 | 45200 | strong affinity | 165 |  | restored LI | strong affinity | 5.77 | No increase | increase | increase | increased | No increase | increase | increase | increased | antagonized | Suppression of conditioned avoidance responding was observed; also recorded: suppresses CAR | enhanced DA efflux |
